The record followed here is ChEMBL document CHEMBL1201862, “PubChem BioAssay data set” (2004).

Activity calls are given as the source filed them.

Data set [1] can be described thus: restored growth of temperature-sensitive Burl-1 yeast – whole organism, S. cerevisiae, Burl-1 ts mutant, luminescence, counter-screen for SUMOylation pathway inhibitor project, dose response (AID 463199). Type of data set: functional. For orientation: A counterscreen serves to expose hits that act by an unwanted route or on another target.
For data set [2], the target named is T1, Apoptotic protease-activating factor 1 (Homo sapiens, UniProt O14727).
T1 sequence (O14727 whole entry): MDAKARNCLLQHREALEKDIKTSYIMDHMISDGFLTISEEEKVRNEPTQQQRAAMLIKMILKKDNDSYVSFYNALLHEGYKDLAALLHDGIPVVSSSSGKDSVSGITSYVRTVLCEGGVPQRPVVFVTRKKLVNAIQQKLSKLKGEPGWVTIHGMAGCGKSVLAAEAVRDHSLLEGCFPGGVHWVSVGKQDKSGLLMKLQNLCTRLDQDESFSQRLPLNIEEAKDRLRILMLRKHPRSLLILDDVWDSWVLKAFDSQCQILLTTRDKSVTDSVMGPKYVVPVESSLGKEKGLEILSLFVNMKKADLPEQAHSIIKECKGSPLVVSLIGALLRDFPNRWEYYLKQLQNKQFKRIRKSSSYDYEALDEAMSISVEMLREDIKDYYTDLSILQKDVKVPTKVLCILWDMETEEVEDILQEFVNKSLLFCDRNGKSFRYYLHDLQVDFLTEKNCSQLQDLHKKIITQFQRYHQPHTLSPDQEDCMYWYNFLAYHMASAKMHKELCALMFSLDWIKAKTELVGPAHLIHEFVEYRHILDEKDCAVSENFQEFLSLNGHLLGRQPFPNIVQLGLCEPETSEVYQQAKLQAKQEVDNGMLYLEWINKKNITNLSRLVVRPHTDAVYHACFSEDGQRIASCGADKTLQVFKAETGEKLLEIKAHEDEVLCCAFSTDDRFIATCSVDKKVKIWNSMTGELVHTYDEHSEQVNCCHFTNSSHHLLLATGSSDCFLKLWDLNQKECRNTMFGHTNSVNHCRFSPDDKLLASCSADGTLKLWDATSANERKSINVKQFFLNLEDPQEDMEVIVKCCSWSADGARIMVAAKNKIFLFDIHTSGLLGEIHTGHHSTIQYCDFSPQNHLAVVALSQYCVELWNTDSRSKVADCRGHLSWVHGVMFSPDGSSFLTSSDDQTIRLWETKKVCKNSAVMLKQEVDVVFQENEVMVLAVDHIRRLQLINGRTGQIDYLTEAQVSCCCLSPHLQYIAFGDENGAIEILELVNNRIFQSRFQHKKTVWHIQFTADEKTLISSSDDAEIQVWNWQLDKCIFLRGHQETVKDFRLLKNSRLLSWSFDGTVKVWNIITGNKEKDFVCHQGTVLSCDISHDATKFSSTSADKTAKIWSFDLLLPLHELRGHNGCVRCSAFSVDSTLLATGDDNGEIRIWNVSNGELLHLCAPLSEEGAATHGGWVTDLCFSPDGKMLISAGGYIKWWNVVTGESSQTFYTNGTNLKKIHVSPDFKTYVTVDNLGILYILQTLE
Description: SAR analysis of small molecule Activators of Apaf-1 in a Fluorescent assay. Type of data set: functional. To be noted: read-out: EC50_Mean.

Data set [3] concerns the target T2, High affinity choline transporter 1 (Homo sapiens, UniProt Q9GZV3).
T2 sequence (Q9GZV3 whole entry): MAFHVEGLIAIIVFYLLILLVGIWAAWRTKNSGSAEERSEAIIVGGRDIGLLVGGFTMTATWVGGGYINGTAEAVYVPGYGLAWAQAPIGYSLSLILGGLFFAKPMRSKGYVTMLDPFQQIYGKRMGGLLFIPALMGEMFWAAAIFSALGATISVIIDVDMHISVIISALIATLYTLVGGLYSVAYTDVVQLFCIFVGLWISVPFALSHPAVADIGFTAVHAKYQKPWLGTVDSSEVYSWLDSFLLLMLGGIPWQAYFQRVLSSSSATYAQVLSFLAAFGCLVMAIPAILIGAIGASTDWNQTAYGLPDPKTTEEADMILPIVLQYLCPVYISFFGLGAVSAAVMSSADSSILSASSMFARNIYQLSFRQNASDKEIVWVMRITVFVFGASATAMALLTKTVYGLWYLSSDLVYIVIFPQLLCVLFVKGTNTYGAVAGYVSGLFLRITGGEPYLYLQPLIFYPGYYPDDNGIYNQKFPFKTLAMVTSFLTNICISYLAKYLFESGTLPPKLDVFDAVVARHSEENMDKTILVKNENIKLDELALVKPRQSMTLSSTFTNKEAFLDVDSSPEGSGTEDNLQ
Description: human choline transporter blockers, potency – cell-based, 10-point CRC, membrane potential dye, dose response (AID 588401).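 Further: membrane potential dye fluorescence of choline-evoked depolarization via CHT.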 Type of data set: functional.

The target of data set [4] is T2, High affinity choline transporter 1. Briefly: human choline transporter blockers, potency – cell-based, 5-point CRC, membrane potential dye, dose response (AID 504840). Type of data set: functional.
Data set [5] deals with P388/ADR. Briefly: cells. Type of data set: functional. Particulars: Mus musculus.
Data set [6] has as its system P388. Briefly: cells. Type of data set: functional. To be noted: Mus musculus.
Data set [7] concerns SN12K1. Description: cells. Type of data set: functional. To be noted: Homo sapiens.
The target in data set [8] is SUMO-activating enzyme (Homo sapiens, UniProt Q9UBT2). Description: blockers of UBC9-mediated SUMO conjugation – biochemical, AlphaScreen, SUMOylation inhibitor project, confirmation (AID 2018). Type of data set: functional. On the technique in general: In Alpha technology, singlet oxygen from a donor bead excites a nearby acceptor bead.
The target in data set [9] is T3, Calpain-2 catalytic subunit (Sus scrofa, UniProt P43367).
T3 sequence (P43367 whole entry): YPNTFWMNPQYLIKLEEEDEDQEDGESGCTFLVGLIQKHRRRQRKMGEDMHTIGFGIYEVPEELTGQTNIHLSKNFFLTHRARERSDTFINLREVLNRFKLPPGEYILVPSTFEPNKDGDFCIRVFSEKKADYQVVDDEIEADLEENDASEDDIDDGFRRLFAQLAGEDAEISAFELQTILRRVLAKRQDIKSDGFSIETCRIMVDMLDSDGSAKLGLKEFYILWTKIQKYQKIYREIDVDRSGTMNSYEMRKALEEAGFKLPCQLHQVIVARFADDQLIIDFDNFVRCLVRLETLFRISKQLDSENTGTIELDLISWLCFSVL
Briefly: m-calpain protease blockers, concentration series – biochemical, fluorogenic peptide substrate, dose response (AID 1420). Type of data set: functional.

The target in data set [10] is Cytochrome P450 2C9 (Homo sapiens, UniProt P11712).
Data set [11] concerns the target T4, Cytochrome P450 3A4 (Homo sapiens, UniProt P08684).
Data set [12] concerns the target T5, Cytochrome P450 1A2 (Homo sapiens, UniProt P05177).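 Further: PubChem cytochrome P450 panel assay, CYP1A2 panel member.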
T5 sequence (P05177 whole entry): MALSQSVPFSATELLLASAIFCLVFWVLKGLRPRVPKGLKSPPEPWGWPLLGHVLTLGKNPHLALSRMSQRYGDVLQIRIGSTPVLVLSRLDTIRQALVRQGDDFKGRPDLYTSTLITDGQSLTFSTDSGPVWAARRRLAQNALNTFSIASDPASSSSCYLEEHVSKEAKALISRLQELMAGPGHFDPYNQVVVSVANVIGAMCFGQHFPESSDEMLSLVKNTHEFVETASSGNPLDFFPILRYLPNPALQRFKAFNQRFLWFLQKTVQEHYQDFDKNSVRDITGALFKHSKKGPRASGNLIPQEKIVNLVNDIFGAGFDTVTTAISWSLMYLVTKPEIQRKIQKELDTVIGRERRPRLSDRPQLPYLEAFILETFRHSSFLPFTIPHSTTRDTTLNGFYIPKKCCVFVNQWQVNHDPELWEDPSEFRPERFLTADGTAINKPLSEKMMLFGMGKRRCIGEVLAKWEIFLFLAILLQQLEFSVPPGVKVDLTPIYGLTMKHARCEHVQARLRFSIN

Data set [13] concerns the target T4, Cytochrome P450 3A4. Particulars: Potency.
Data set [14] deals with Heat shock protein HSP 90-alpha (Homo sapiens, UniProt P07900). Type of data set: functional, organism-based.
Data set [15] has as its system H9c2. Briefly: cells. Particulars: Rattus norvegicus, H9c2, Myocardium. Type of data set: functional, cell-based.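 Further: confirmatory concentration-response retest of ultra-high-throughput screening hits for modulation of myocardial damage; cell death induced by hydrogen peroxide oxidative stress; compound pretreatment for 60 min then peroxide exposure for 2 h; potency is for protecting the cells against peroxide damage rather than for killing them.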
Data set [16] concerns the target T1, Apoptotic protease-activating factor 1. Type of data set: functional.
Data set [17] has as its target T6, Heat shock factor protein 1 (Mus musculus, UniProt P38532).
T6 sequence (P38532 whole entry): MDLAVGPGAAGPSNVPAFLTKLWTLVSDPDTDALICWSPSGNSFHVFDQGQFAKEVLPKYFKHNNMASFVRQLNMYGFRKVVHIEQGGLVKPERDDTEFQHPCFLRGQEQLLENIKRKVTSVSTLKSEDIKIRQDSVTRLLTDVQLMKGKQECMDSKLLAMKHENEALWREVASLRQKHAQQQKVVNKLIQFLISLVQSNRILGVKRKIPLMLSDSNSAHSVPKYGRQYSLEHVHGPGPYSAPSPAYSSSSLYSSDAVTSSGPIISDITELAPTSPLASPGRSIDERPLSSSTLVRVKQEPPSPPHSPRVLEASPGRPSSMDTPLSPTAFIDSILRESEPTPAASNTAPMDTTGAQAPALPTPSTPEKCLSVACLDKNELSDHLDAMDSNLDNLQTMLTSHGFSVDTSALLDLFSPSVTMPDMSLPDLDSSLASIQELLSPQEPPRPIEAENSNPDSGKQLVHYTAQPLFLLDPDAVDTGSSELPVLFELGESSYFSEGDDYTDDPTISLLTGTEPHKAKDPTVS
Description: enhancement of HSF1-driven luciferase signal – cell-based, NIH3T3, luminescence, dose retest, confirmation (AID 435004).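 Further: stress induced by proteasome inhibitor MG132 added 30 min after compound; luciferase reporter driven by HSF1 response element in NIH3T3 cells; actives raise luminescence as potentiators of the MG132 stress response.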 Type of data set: functional.

The subject of data set [18] is Vero. Description: cells. Type of data set: functional, cell-based. Particulars: Chlorocebus sabaeus.
Data set [19] concerns Vero. Briefly: cells. Type of data set: functional. To be noted: Chlorocebus sabaeus.
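Wherever EC50 Mean is given: caspase-3 cleavage of fluorogenic Rh110 DEVD substrate downstream of apoptosome activation.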

T4 sequence (P08684 whole entry): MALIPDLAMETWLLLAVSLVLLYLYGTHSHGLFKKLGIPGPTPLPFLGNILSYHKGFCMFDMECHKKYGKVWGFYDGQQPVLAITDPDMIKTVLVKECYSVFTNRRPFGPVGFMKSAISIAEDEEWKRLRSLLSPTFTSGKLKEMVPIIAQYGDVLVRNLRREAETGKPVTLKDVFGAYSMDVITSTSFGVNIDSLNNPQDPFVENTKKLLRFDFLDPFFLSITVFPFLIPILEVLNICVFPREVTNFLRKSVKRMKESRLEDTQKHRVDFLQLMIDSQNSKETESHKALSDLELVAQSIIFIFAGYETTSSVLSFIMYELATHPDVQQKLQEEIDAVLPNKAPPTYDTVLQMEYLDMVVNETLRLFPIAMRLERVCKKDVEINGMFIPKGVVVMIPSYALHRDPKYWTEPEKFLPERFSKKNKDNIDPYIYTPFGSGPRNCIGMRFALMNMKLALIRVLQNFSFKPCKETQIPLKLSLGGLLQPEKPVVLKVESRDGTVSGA
Sequence of Cytochrome P450 2C9 (P11712 whole entry): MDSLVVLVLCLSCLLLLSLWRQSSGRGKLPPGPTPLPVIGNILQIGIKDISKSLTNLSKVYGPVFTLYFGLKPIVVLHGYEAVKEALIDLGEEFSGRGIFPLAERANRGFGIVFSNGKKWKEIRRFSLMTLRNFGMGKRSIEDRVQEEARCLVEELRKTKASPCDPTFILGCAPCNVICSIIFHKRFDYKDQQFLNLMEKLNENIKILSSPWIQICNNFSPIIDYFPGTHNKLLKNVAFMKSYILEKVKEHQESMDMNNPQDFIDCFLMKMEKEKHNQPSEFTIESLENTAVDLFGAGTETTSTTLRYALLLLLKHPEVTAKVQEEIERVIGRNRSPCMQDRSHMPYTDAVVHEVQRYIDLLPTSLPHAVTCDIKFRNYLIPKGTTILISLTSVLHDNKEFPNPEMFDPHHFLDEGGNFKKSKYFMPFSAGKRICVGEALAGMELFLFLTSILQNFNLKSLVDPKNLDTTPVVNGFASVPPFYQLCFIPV
Sequence of SUMO-activating enzyme (Q9UBE0 whole entry): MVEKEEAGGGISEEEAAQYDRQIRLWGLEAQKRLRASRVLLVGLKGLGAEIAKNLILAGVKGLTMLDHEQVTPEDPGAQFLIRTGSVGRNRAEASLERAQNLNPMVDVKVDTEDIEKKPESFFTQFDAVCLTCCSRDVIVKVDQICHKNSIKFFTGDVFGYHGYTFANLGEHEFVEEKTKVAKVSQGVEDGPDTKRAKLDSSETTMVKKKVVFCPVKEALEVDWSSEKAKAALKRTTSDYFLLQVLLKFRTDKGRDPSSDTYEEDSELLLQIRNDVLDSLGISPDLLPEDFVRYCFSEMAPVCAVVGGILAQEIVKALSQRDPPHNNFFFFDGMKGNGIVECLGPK
Sequence of SUMO-activating enzyme (Q9UBT2 whole entry): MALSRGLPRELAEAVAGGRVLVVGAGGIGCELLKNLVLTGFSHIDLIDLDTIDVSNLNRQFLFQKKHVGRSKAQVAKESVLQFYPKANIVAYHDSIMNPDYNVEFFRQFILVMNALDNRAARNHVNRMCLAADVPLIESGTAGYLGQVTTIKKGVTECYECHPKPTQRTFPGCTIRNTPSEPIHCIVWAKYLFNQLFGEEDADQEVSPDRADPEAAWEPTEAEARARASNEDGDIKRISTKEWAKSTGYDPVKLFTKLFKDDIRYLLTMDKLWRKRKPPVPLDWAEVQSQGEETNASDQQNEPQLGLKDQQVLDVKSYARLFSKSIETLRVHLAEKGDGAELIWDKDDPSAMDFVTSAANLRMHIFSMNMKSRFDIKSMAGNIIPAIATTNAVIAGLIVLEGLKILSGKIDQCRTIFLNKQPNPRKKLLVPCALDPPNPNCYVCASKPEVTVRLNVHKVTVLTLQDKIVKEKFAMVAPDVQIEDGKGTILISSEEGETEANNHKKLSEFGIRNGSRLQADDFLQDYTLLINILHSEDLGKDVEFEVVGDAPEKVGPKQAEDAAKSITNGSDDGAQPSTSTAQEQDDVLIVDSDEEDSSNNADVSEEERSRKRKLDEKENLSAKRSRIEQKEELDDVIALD

The AC50 is the concentration at which the activity in the assay is half-maximal. Turning to `O=C(NCCN1CCOCC1)Nc1ccc(Cl)cc1Cl`, the concentration at half-maximal activity (AC50) in [1] is 68.1 µM (active).

Take `COc1cc(NCC(C)C(=O)O)cc(OC)c1OC` (stereo not drawn): the EC50 in [2] was > 100 µM (inactive).

In general, IC50 refers to the concentration that inhibits the measured activity by half. Turning to `CCOC(=O)c1cc(C(=O)NC(C)c2ccccc2)c(O)nc1C` (stereo not drawn), the IC50 in data set [3] was 0.34 µM (active); in data set [4], 0.798 µM (active).

Broadly, the GI50 is the concentration that inhibits growth by half. As to `C=C1CC2CC[C@@]34C[C@@H]5O[C@@H]6C(O[C@H]7CC[C@H](CC(=O)OC8[C@@H](C)C9OC%10C[C@]%11(C[C@@H]%12O[C@@]%13(C[C@@H](C)[C@@H]%12O%11)C[C@H](C)[C@@H]%11OC%12CC(C(O)CO)OC%12C[C@@H]%11O%13)OC%10CC9O[C@H]8C[C@H]8O[C@@H](CC[C@@H]1O2)C[C@@H](C)C8=C)O[C@@H]7[C@@H]6O3)C5O4` (stereo partly drawn), the GI50 is 0.00416 µM (active) in [5], 0.000148 µM (active) in data set [6] and 0.000148 µM (active) in data set [7].

For the molecule `CCCCn1c(N)c(N(CC(C)C)C(=O)CSCC(=O)Nc2cccc(C)c2)c(=O)[nH]c1=O`, in [1], the AC50 was 54.1 µM (active).

For the molecule `Cc1ccccc1NC(=O)c1ccc(N/N=C/c2ccccc2O)c([N+](=O)[O-])c1`, the IC50 in data set [8] was 67.3 µM (active); in data set [9], 18.9 µM (not active). The AC50 entry in data set [10] was “inconclusive”; in [11], 4.47 µM (inconclusive); in [12] it was 14.1 µM (inconclusive).

Turning to `CC1OC(=O)C(C(C)C)NC(=O)C(C(C)C)OC(=O)C(C(C)C)NC(=O)C(C)OC(=O)C(C(C)C)NC(=O)C(C(C)C)OC(=O)C(C(C)C)NC(=O)C(C)OC(=O)C(C(C)C)NC(=O)C(C(C)C)OC(=O)C(C(C)C)NC1=O` (stereo not drawn), the GI50 in data set [5] is 0.00396 µM (active); in [6], 0.0025 µM (active); in [7], 0.00281 µM (active). Moreover, the AC50 in data set [13] is 12.6 µM (inconclusive).

In the case of `Cc1ccc(S(=O)(=O)N(C(=O)c2ccncc2)c2ccc(OC(=O)c3ccncc3)cc2)c(C)c1`, the AC50 in data set [14] is 1.72 µM (active).

As for `Oc1c(Br)cc(Br)cc1/C=N/c1cccc2ncccc12`, the IC50 in data set [15] is 13.5 µM (active); in data set [16], 36 µM (active); in data set [3], 4.74 µM (active); in data set [4] it was 4.19 µM (active). In data set [17], the EC50 was > 260 µM (inactive).

For `Cc1cccc(C)c1N1C(=O)CC2(CC(c3ccc(F)cc3)=NO2)C1=O` (stereo not drawn), the EC50 in data set [2] was > 100 µM (inactive).

On to `O=NN(CCCl)C(=O)N[C@H]1CC[C@@H](CC(=O)O)CC1`, for which the GI50 is 19.9 µM (inactive) in [5], 12.9 µM (inactive) in data set [6] and > 100 µM (inactive) in data set [7].

Take `O=C(O)CC1=C(Nc2ccccc2)C(=O)N(c2ccccc2)C1c1ccc(Cl)cc1` (stereo not drawn): the IC50 in data set [3] is 2.7 µM (active); in [4], 8.1 µM (active). The EC50 in data set [17] was > 260 µM (inactive).

Broadly, the CC50 is the concentration that lowers cell viability or growth by half. Turning to `COc1cccc(-n2c(CN3CCN(C)CC3)nc3ccc([N+](=O)[O-])cc3c2=O)c1`, the IC50 in data set [18] was 14.7 µM (active). Besides, in data set [19], the CC50 was > 25 µM (active).

With `CCc1nnc(NC(=O)CSc2nc3c(cc2C#N)CCCC3)s1`, in [1], the AC50 was 58.2 µM (active).
